This assay concerns MMP-9 and MMP2 in human normal breast cells MCF-10A stimulated by TNF-α/TGF-β. The assay can be described thus: Zymography enzyme activity assay. The class given is cell-based. An excerpt:
Referring to FIG. 8B, the Zymography enzyme activity assay was used to detect effect of the compound II in different doses on enzyme activities of the MMP-9, MMP2 and uPA in the breast tumor cells MDA-MB-231. Moreover, referring to FIG. 9, the Zymography enzyme activity assay was used to detect effect of the compound I on enzyme activities of the MMP-9 and MMP2 in the human normal breast cells MCF-10A stimulated by TNF-α/TGF-β. In the Zymography enzyme activity assay, the cells (1×10^6) were planted in a 6-well plate. The next day after the cells were adhered to the wall, the cells were cultured in a serum free DMEM culture medium at an atmosphere of 5% CO2 in an incubator at 37° C. for 24 h. The compound II in different doses were added into the DMEM culture medium. In other test groups, the compound I was added, TNF-α/TGF-β were added or the compound I and TNF-α/TGF-β were added into the DMEM culture medium, wherein the concentration of compound I and TNF-α/TGF-β were 2 mM and 10 ng/ml, respectively. The cells were cultured in the culture medium for 2 h and then washed with PBS. The cell culture medium was putted into a microcentrifuge tube and centrifuged for 10 min at 1500 rpm. The supernatant was taken to perform a protein gel electrophoresis (SDS-PAGE), so as to separate the proteins. […]

For `COC1=C(OC)C(=O)C(C)=CC1=O` [compound I], the “enzyme activities of MMP-2 and MMP-9” value was “decreased” (compound alone) and “recovered the increase caused by TNF-α/TGF-β stimulating” (with TNF-α/TGF-β simultaneously).

For the origin of these results see US20150087722A1, “TREATMENT FOR BREAST TUMOR CELL METASTASIS” (China Medical University, priority 2012, published 2015).
